# According to patent US11440880B2, “Thalidomide analogs and methods of use” (The USA, as represented by the Secretary, Department of …, priority 2015, dated 2022):
# “Also recorded” adds a separate entry of the source.
# Assays:
# [1] = tested on: nitrite levels in the culture media; experiment: Nitrite level (Griess Reagent System) in LPS-challenged RAW 264.7 cells; format: cell-based, mouse; design: key: NS=not significant; a “+” sign=anti-inflammatory or increased cell numbers; a “−” sign=cell toxicity or pro-inflammatory; conditions: LPS 30 or 60 ng/mL, 24 h
# How it was run: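 RAW 264.7 cells pretreated 1 h with compound in DMSO vehicle, then challenged with LPS (30 or 60 ng/mL) for 24 h at 37° C. Conditioned-media nitrite by Griess (520 nm, sodium nitrite standard curve, 1.5 μM cutoff) in μM; mouse TNF-α by ELISA as pg/ml or % change from control.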
# [2] = tested on: PC3 cells (xenografted tumors); experiment: PC3 xenograft efficacy in SCID mice; format: in vivo; conditions: 10 mg/kg; for tumor burden: day 0 to day 24
# Text: (§1) Compounds 29 and 86 were selected for in vivo efficacy studies of human prostate cancer. Mice positive for the severe combined immune deficieny (SCID) spontaneous mutation Prkdc^scid are deficient in functional T cells and B cells, have reduced levels of gamma globulins and lymphopenia (low white blood cell count). Due to their comprised immune system, SCID mice are amenable to xenogeneic grafts. Before starting the efficacy study, a maximum tolerated dose was established for each compound. Compound administration was by tail vein injection (IV) with a 27-gauge needle. A volume of 100 uL per 25 g of body weight was injected for each compound and dose. Compounds 29 and 86 were formulated in 12% DMSO and 88% TPGS (tocopherol polyethylene glycol succinate) in distilled sterile water. This formulation was well tolerated in vehicle control mice. The maximum tolerated dose was defined as the highest dose at which 100% of animals could tolerate treatment with mild or no toxicity for a minimum of one week of treatment. Initially, each compound was administered 3× per week to five mice per group, at 5 and 10 mg/kg. Each dose level was monitored for at least one week. […] Animals were weighed daily during the treatment courses. […] The selected dose for further experimentation was therefore 10 mg/kg.
# When the tumors of SCID mice xenografted with PC3 cells were palpable, mice were dosed with 10 mg/kg of compound 29 or compound 86, or given the vehicle alone. From day 0 to day 24, the tumor sizes in vehicle-treated animals increased by 301.33% (FIG. 15, tumor size=401.33%±35.98%).
# [3] = tested on: 59 cancer cell lines; experiment: One-dose anti-cancer screening in 59 cancer cell lines; format: cell-based; conditions: 1×10^−5 M; with the exception of leukemic cell lines
# Text: As well as being immunomodulatory and anti-angiogenic, lenalidomide and pomalidomide are directly cytotoxic to cancer cells. […] Compounds 29 and 86 were screened at a concentration of 1×10^−5 M (FIGS. 11 and 12, respectively). Calculated values from 0-100 indicate growth inhibition relative to a no-drug control, and values less than 0 indicate lethality, relative to the number of cells at time zero. A value of 100 means no growth inhibition. A value of 40 means 60% growth inhibition. A value of 0 means no net growth over the course of the experiment. A value of −40 means 40% lethality. A value of −100 means all cells are dead.
# [4] = Precipitation of the IV formulation; format: physicochemical; conditions: 20 mg/kg; 12% DMSO and 88% TPGS in distilled sterile water
# Text: as §1
# [5] = tested on: human saphenous vein sections (microvessel outgrowth); experiment: Human saphenous vein assay of angiogenesis (ex vivo); format: cell-based; conditions: for inhibition of vessel outgrowth: in words; for vessel outgrowth: 10 days of incubation
# Protocol: The saphenous vein was cleaned of subcutaneous tissue and embedded in Matrigel® matrix as previously described. After 10 days of incubation, the transverse sections of the veins were imaged. The outgrowth between the vehicle and no treatment (media) control was equivalent (106.65%±20.14, n=2 and 103.35%±4.06, n=2 respectively; FIGS. 13A and 13B).
# [6] = Maximum tolerated dose in SCID mice; format: in vivo; conditions: 3× per week; for deaths / drug-related toxicity / weight loss: 5 mg/kg and 10 mg/kg IV; for MTD: SCID, mouse, in vivo, IV, read-out: selected dose from the maximum tolerated dose study
# Text: as §1
# [7] = tested on: chicken embryos; experiment: Chicken embryo development / teratogenicity; format: in vivo, white leghorn chicken; conditions: in words; applied at HH stage 17-18
# Protocol: Chicken Embryology: Fertilized white leghorn chicken embryos were incubated at 38° C. and staged according to Hamburger and Hamilton (HH) stages of development (1951). Embryos were tested at HH stage 17-18 (day 2.5). Following membrane removal, test compounds or vehicle control solutions were applied globally over the embryo. The eggs were sealed and the development of the embryos was monitored up to HH stage 30 (E9).
# Compounds of interest were screened in chicken embryos (FIGS. 7I-7P).
# Concentrations used in the WT zebrafish and chicken embryo assays to assess for teratogenesis, were equal to or higher than those utilized in the fil1:EGFP and mpo:GFP zebrafish assays
compound,measurement,setting,value
"O=C1NC(=S)CCC1N1C(=O)c2cccc([N+](=O)[O-])c2C1=O (stereo not shown) [Compound 7, 2-(2-Oxo-6-thioxo-3-piperidinyl)-4-nitro-1H-isoindole-1,3(2H)-dione]",Nitrite,[1]; 1 μM,NS
same,Nitrite,[1]; 10 μM,NS
same,Nitrite,[1]; 30 μM,+
same,Nitrite,[1]; 60 μM,+
same,Nitrite,[1]; 100 μM,+
"Nc1cccc2c1CN(C13CC4CC(CC(C4)C1)C3)C2=O [Compound 77, 2,3-Dihydro-4-amino-2-(tricyclo[3.3.1.1^3,7]dec-1-yl)-1H-isoindol-1-one]",Nitrite,[1]; 1 μM,NS
same,Nitrite,[1]; 10 μM,NS
same,Nitrite,[1]; 30 μM,NS
"O=C1c2ccccc2CN1C12CC3CC(CC(O)(C3)C1)C2 [Compound 86, 2,3-Dihydro-2-(tricyclo[3.3.1.1^3,7]dec-1-hydroxy-3-yl)-1H-isoindol-1-one]",tumor burden,[2],No reduction in tumor burden
same,tumor size versus vehicle treated mice,[2]; p=0.07,trend to separate
same,Nitrite,[1]; 1 μM,NS
same,Nitrite,[1]; 10 μM,NS
same,Nitrite,[1]; 30 μM,NS
same,activity on cell growth / cytotoxicity,[3],very little activity
same,behaviour of the compound in the dosing solution,[4],precipitate in the solution
same,inhibition of vessel outgrowth,"[5]; 10 μM (FIGS. 13D, 13E)",vastly reduced outgrowth
same,inhibition of vessel outgrowth,[5]; all concentrations,inhibit outgrowth at all concentrations
same,deaths / drug-related toxicity,[6],no animals died or needed to be euthanized due to drug-related toxicity
same,weight loss,[6],no significant weight loss
same,MTD,[6],10 mg/kg
CC(N1Cc2c(N)cccc2C1=O)C12CC3CC(CC(C3)C1)C2 (stereo not shown) [Compound 81],effect on development / mortality of chicken embryos,[7],hemorrhaging throughout the body and head; also recorded: growth reduction and hemorrhaging throughout the head
same,Nitrite,[1]; 1 μM,NS
same,Nitrite,[1]; 10 μM,NS
same,Nitrite,[1]; 30 μM,+
O=C1CCC(N2C(=O)c3cccc([N+](=O)[O-])c3C2=O)C(=O)N1 (stereo not shown) [Compound 5],Nitrite,[1]; 1 μM,NS
same,Nitrite,[1]; 10 μM,NS
same,Nitrite,[1]; 30 μM,NS
same,Nitrite,[1]; 60 μM,NS
same,Nitrite,[1]; 100 μM,NS
Nc1cccc2c1CN(C1CCC(=O)NC1=O)C2=S (stereo not shown) [Compound 29],tumor burden,[2],No reduction in tumor burden
same,activity on cell growth / cytotoxicity,[3],very little activity
same,behaviour of the compound in the dosing solution,[4],precipitate in the solution
same,vessel outgrowth,[5]; 5 μM,155.12%±23.69
same,vessel outgrowth,[5]; 10 μM,168.06%±14.87
same,vessel outgrowth,[5]; 50 μM,102.38%±16.78
same,vessel outgrowth,[5]; 100 μM,62.53%±13.69
same,inhibition of vessel outgrowth,"[5]; 10 μM (FIGS. 13D, 13E)",no inhibition
same,deaths / drug-related toxicity,[6],no animals died or needed to be euthanized due to drug-related toxicity
same,weight loss,[6],no significant weight loss
same,MTD,[6],10 mg/kg
